Where “and” joins values, the source holds several entries; their conditions need not be identical. Identical values can stand only once. Like-named read-outs stand apart in the source and are kept apart here. Marks after values point to notes of the source that are not given here.
What was measured:
EMT-6 cancer cells = assay: EMT-6 subcutaneous syngeneic mouse tumor model (Example 48); format: in vivo, BALB/C mice; details: 40 mg/kg, IP
Description: (§1) This example describes in vivo studies that evaluated the anti-cancer efficacy of ARI-143, ARI-164, ARI-165, and ARI-186 in syngeneic mouse tumor models. Mice implanted subcutaneously with EMT-6 or Pan02 cancer cells were treated with ARI-143, ARI-164, ARI-165, ARI-186, or vehicle controls, as described below.
(§2) A monolayer culture of tumor cells was maintained in vitro in DMEM or RPMI1640 medium supplemented with 10% fetal bovine serum at 37° C. in an atmosphere of 5% CO2. Cells in exponential growth phase were harvested and quantitated by cell counter before tumor inoculation. The cell lines used are described in the table below.
(§3) Two subcutaneous syngeneic mouse tumor models were generated by innoculating female BALB/C or C57BL/6 mice with cancer cells at their right lower or front flank as detailed in the table below:
(§4) Each mouse was inoculated subcutaneously with tumor cells in 0.1 mL of PBS. Treatments were started when the mean tumor size reached approximately 80-120 mm^3 (around 100 mm^3). The administration of the test compounds and the animal number in each study group are shown in the study design. The date of tumor cell inoculation was denoted as day 0.
(§5) ARI-143, ARI-164, and ARI-165 were dissolved in DMSO at the final concentration of 26.7 mg/ml and stored at room temperature. In Pan02 studies of ARI-164 and ARI-186, both compounds were dissolved in 100% PEG400.
Randomization of animals was started when the mean tumor size reached approximately 90 mm^3 to form the mouse study groups. The randomization was-performed based on “Matched distribution” method using the multi-task method (StudyDirector™ software, version 3.1.399.19)/randomized block design. The mouse groups (ten in each group) were treated with vehicle (DMSO or PEG400) or the test compounds at a dose of 26-80 mg/kg by intraperitoneal (i.p.). injection, QD for 28 days or longer.
(§6) After tumor cell inoculation, the mice were checked daily for morbidity and mortality. During routine monitoring, the mice were checked for tumor growth and any effects of the treatment on behavior such as mobility, food and water consumption, body weight gain/loss (body weights were measured twice per week after randomization), eye/hair matting, and any other abnormalities. Mortality and observed clinical signs were recorded for individual mice in detail.
(§7) Tumor volumes were measured twice per week in two dimensions using a caliper, and the volume was expressed in mm^3 using the formula: V=(L×W×W)/2, where V is tumor volume, L is tumor length (the longest tumor dimension) and W is tumor width (the longest tumor dimension perpendicular to L). Dosing as well as tumor and body weight measurements was conducted in a Laminar Flow Cabinet. The body weights and tumor volumes were measured by using StudyDirector™ software (version 3.1.399.19). Dosing Holiday
(§8) Tumor growth inhibition percentage (TGI %) is an indicator for antitumor activity of a drug compound, and expressed as: TGI(%)=100×(1−T/C), where T and C are the mean tumor volume (or weight) of the treated and control groups, respectively, on a given day. Statistical analysis of the difference in mean tumor volume (MTV) among the groups was conducted using the data collected on the day when the MTV of the vehicle group reached the humane endpoints, so that TGI could be derived for all or most mice enrolled in the study.

Pan02 cancer cells = assay: Pan02 subcutaneous syngeneic mouse tumor model (Example 48); format: in vivo, C57BL/6 mice; details: for TGI: IP; for tumor inhibition versus vehicle: Pan02 tumors
Description: as §1, §2, §3, §4, §5
Randomization of animals was started when the mean tumor size reached approximately 90 mm^3 to form the mouse study groups. The randomization was-performed based on “Matched distribution” method using the multi-task method (StudyDirector™ software, version 3.1.399.19)/randomized block design. […]
as §6, §7, §8

[1] = In vivo pharmacokinetic studies in mice; parameters: species or system Balb/C mice
EMT-6 = EMT-6 syngeneic mouse tumor model, ARI-164 / anti-PD-1 / combination (Example 49); format: in vivo; details: EMT-6 model
Description: (§9) In this example, the in vivo anti-tumor efficacy of a combination of ARI-164 with an anti-PD-1 antibody was evaluated using a panel of seven subcutaneous syngeneic mouse tumor models.
(§10) Seven subcutaneous syngeneic mouse tumor models were generated by innoculating female BALB/C or C57BL/6 mice with cancer cells at their right lower or right front flank followed by randomization as detailed in Table 10 below.
(§11) A solution of a rat monoclonal anti-mouse PD-1 antibody (isotype IgG2a, κ) at a concentration of 6.61 mg/ml was obtained from BioXcell (InVivoMAb anti-mouse PD-1 (CD279), Clone RMP1-14, Cat #BE0146)) and store at 4° C. The antibody solution was diluted with PBS to obtain a 1 mg/ml dosing solution.
(§12) ARI-164 powder was stored at −20° C. The powder of the compound was dissolved in DMSO to obtain dosing solutions at 26.7 mg/ml for administration to mice at 40 mg/kg, respectively.
Seven studies using the seven subcutaneous syngeneic mouse tumor models were performed. In each study, 80 mice were enrolled and randomly allocated to eight different study groups, with 10 mice in each study group. The mean tumor size at randomization was approximately 80-120 mm^3 (around 100 mm^3). Randomization was performed based on “Matched distribution” randomization method (StudyDirector™ software, version 3.1.399.19). […]
(§13) The data was collected and analyzed as described above in Example 48.

4T-1 = 4T-1 syngeneic mouse tumor model, ARI-164 / anti-PD-1 / combination (Example 49); format: in vivo; details: 4T-1 model
Description: as §9, §10, §11, §12
Seven studies using the seven subcutaneous syngeneic mouse tumor models were performed. In each study, 80 mice were enrolled and randomly allocated to eight different study groups, with 10 mice in each study group. The mean tumor size at randomization was approximately 80-120 mm^3 (around 100 mm^3). Randomization was performed based on “Matched distribution” randomization method (StudyDirector™ software, version 3.1.399.19). […] All the drugs and vehicle controls were injected to the mice intraperitoneally.
as §13

[2] = Balb/C, mouse, plasma, mice, single 40 mg/kg oral dose
[3] = Balb/C, mouse, plasma, mice, read-out: half-life (converted)
[4] = mice, single 40 mg/kg oral dose
[5] = mouse, plasma, Balb/C mice, single dose IP 40 mg/kg
[6] = mouse, plasma, Balb/C mice, single dose IV 5 mg/kg
[7] = mouse, plasma, Balb/C mice, single dose PO 10 mg/kg
[8] = mouse, plasma, Balb/C mice, single dose PO 40 mg/kg
[9] = intraperitoneal, anti-PD-1 10 mg/kg BIW, ARI-164 40 mg/kg QD
[10] = Balb/C, mouse, plasma, mice, single 40 mg/kg oral dose, from mean profile
[11] = mice, single 40 mg/kg oral dose, Mean
[12] = mice, single 40 mg/kg oral dose, individual mouse (M1-M3), 40 mg/kg

CCC(=O)c1csc(C(=O)c2c[nH]c3cc(F)ccc23)n1 [ARI-143, 1-(2-(6-fluoro-1H-indole-3-carbonyl)thiazol-4-yl)propan-1-one]
TGI (EMT-6 cancer cells; (susp), study day 6): 0.1% | TGI (EMT-6 cancer cells; (susp), study day 10): −10.1% | TGI (EMT-6 cancer cells; (susp), study day 13): 0.6% | TGI (EMT-6 cancer cells; (susp), study day 17): 30.9% | TGI (EMT-6 cancer cells; (susp), study day 20): 41.0% | TGI (EMT-6 cancer cells; (susp), study day 24): 53.2% | TGI (EMT-6 cancer cells; (susp), study day 27): 51.8% | TGI (EMT-6 cancer cells; (susp), study day 31): 54.8%

CC[C@H](N)c1csc(C(=O)c2c[nH]c3cc(F)ccc23)n1 [ARI-186, (S)-(4-(1-aminopropyl)thiazol-2-yl)(6-fluoro-1H-indol-3-yl)methanone]
TGI (Pan02 cancer cells; 20 mg/kg, study day 0): −2.0% | TGI (Pan02 cancer cells; 20 mg/kg, study day 4): −13.0% | TGI (Pan02 cancer cells; 20 mg/kg, study day 7): −0.3% | TGI (Pan02 cancer cells; 20 mg/kg, study day 11): 27.0% | TGI (Pan02 cancer cells; 20 mg/kg, study day 14): 49.5% | TGI (Pan02 cancer cells; 20 mg/kg, study day 18): 61.9% | tumor inhibition versus vehicle (Pan02 cancer cells; 20 mpk i.p. QD, study day 18): 62% | F* ([1]; Balb/C mice, single dose IP 40 mg/kg (value marked **)): 81.4** % | F* ([1]; Balb/C mice, single dose PO 10 mg/kg): 63.0% | F* ([1]; Balb/C mice, single dose PO 40 mg/kg (value marked **)): 75.7** % | AUC [1, 2]: 73900 ng·h/mL | bioavailability [1, 2]: 75.7% | half-life [1, 3]: ~7.6 h | improvement in AUC over ARI-164 (fold) [1, 4]: 24.6 × | improvement in oral bioavailability over ARI-164 (fold) [1, 4]: 5.0 × | Cmax [1, 5]: 6230 ng/mL | MRT last [1, 5]: 11.2 h | Tmax [1, 5]: 0.5 h | AUC(0-t) ([1]; mouse, plasma, Balb/C mice, single dose IP 40 mg/kg, read-out: AUClast): 79400 ng·h/mL | Cmax [1, 6]: 2130 ng/mL | MRT inf [1, 6]: 9.55 h | MRT last [1, 6]: 6.99 h | Tmax [1, 6]: 0.083 h | clearance [1, 6]: 6.18 mL/min/kg | AUC(0-inf) ([1]; mouse, plasma, Balb/C mice, single dose IV 5 mg/kg, read-out: AUCinf): 13500 ng·h/mL | AUC(0-t) ([1]; mouse, plasma, Balb/C mice, single dose IV 5 mg/kg, read-out: AUClast): 12200 ng·h/mL | half-life ([1]; mouse, plasma, Balb/C mice, single dose IV 5 mg/kg, read-out: T1/2 (converted)): 7.62 h | Vd ([1]; mouse, plasma, Balb/C mice, single dose IV 5 mg/kg, read-out: Vss): 3.55 L/kg | Cmax [1, 7]: 1380 ng/mL | MRT inf [1, 7]: 8.21 h | MRT last [1, 7]: 6.76 h | Tmax [1, 7]: 2 h | AUC(0-inf) ([1]; mouse, plasma, Balb/C mice, single dose PO 10 mg/kg, read-out: AUCinf): 17000 ng·h/mL | AUC(0-t) ([1]; mouse, plasma, Balb/C mice, single dose PO 10 mg/kg, read-out: AUClast): 16100 ng·h/mL | half-life ([1]; mouse, plasma, Balb/C mice, single dose PO 10 mg/kg, read-out: T1/2 (converted)): 5.56 h | Cmax [1, 8]: 5000 ng/mL | MRT last [1, 8]: 9.35 h | Tmax [1, 8]: 2 h | AUC(0-t) ([1]; mouse, plasma, Balb/C mice, single dose PO 40 mg/kg, read-out: AUClast): 73900 ng·h/mL

CC[C@H](O)c1csc(C(=O)c2c[nH]c3cc(F)ccc23)n1 [ARI-164, (S)-(6-Fluoro-1H-indol-3-yl)(4-(1-hydroxypropyl)thiazol-2-yl)methanone]
TGI (EMT-6 cancer cells; study day 6): 0.1% | TGI (EMT-6 cancer cells; study day 10): −10.8% | TGI (EMT-6 cancer cells; study day 13): −2.4% | TGI (EMT-6 cancer cells; study day 17): 20.8% | TGI (EMT-6 cancer cells; study day 20): 41.6% | TGI (EMT-6 cancer cells; study day 24): 54.7% | TGI (EMT-6 cancer cells; study day 27): 54.3% | TGI (EMT-6 cancer cells; study day 31): 56.2% | tumor inhibition (in words) (EMT-6; combination with anti-PD-1 antibody, study day 30): significant tumor inhibition | TGI (%) (EMT-6; [9]): 57.2% | TGI (Pan02 cancer cells; 80 mg/kg, study day 0): −0.6% | TGI (Pan02 cancer cells; 80 mg/kg, study day 4): −4.4% | TGI (Pan02 cancer cells; 80 mg/kg, study day 7): −8.4% | TGI (Pan02 cancer cells; 80 mg/kg, study day 11): 26.6% | TGI (Pan02 cancer cells; 80 mg/kg, study day 14): 40.6% | TGI (Pan02 cancer cells; 80 mg/kg, study day 18): 35.3% | tumor inhibition versus vehicle (Pan02 cancer cells; 80 mpk i.p. QD, study day 18): 35% | AUC [1, 2]: 3010 ng·h/mL | bioavailability [1, 2]: 15.1% | Cmax [1, 10]: 1870 ng/mL | Tmax [1, 10]: 0.5 h | AUC(0-t) ([1]; Balb/C, mouse, plasma, mice, single 40 mg/kg oral dose, from mean profile, read-out: AUC0-t): 3010 ng·h/mL | AUC(0-inf) ([1]; Balb/C, mouse, plasma, mice, single 40 mg/kg oral dose, from mean profile, read-out: AUC0-∞): 3020 ng·h/mL | half-life ([1]; Balb/C, mouse, plasma, mice, single 40 mg/kg oral dose, from mean profile, read-out: t1/2 (converted)): 1.4 h | half-life [1, 3]: 1.4 h | plasma concentration at 0.083 hr [1, 11]: 206.7 | plasma concentration at 0.25 hr [1, 11]: 1623 | plasma concentration at 0.5 hr [1, 11]: 1867 | plasma concentration at 1 hr [1, 11]: 1193 | plasma concentration at 2 hr [1, 11]: 506 | plasma concentration at 4 hr [1, 11]: 82.8 | plasma concentration at 8 hr [1, 11]: 7.1 | plasma concentration at 12 hr [1, 11]: 6.5 | plasma concentration at 24 hr ([1]; mice, single 40 mg/kg oral dose, individual mouse (M1-M3)): BLQ | plasma concentration at 0.083 hr [1, 12]: 330 and 202 and 88 | plasma concentration at 0.25 hr [1, 12]: 1780 and 1740 and 1350 | plasma concentration at 0.5 hr [1, 12]: 1960 and 2020 and 1620 | plasma concentration at 1 hr [1, 12]: 1050 and 1600 and 930 | plasma concentration at 2 hr [1, 12]: 463 and 572 and 482 | plasma concentration at 4 hr [1, 12]: 101 and 79.3 and 68.2 | plasma concentration at 8 hr [1, 12]: 7.1 and BLQ (2×) | plasma concentration at 12 hr [1, 12]: 7.5 and BLQ and 5.6 | effect on tumor growth (in words) (4T-1; ARI-164 alone, 40 mg/kg i.p.): delay tumor growth | tumor growth inhibition (in words) (4T-1; combination with anti-PD-1 antibody, study day 31): statistically significant delta in tumor growth inhibition | TGI (%) (4T-1; [9]): 45.3%
